Experimental data: patent US20240228572A1 (i2o Therapeutics, Inc., priority 2020, published 2024)
*1 amine or outer side, *2 acyl side, *3 side chain or, on linkers, in order; H or OH if unused. Where a SMILES comes first, the peptide text is derived from it. Bridges are numbered along the chain shown (N, C = ends). Side-chain parts run from the residue outwards. [ ]: non-standard residue; d: D form. The star is where a group is joined. C20 diacid = O=C(O)CCCCCCCCCCCCCCCCCCC(=O)*; γGlu = O=C(O)[C@H](CCC(=O)[*:2])N[*:1]; AEEA = NCCOCCOCC(=O)O; Aib = CC(C)(N)C(=O)O

Key:
[1] = target: T1, human Glucagon receptor (GCGR) (Homo sapiens, UniProt P47871); assay: cAMP accumulation assay, CHO-K1 cells expressing human GCGR; type: cell-based; conditions: mean pEC50, Table 10
T1 construct: A cDNA fragment encoding the full-length open reading frame of the human GCGR; expressed in transfected cells; host or cells: CHO-K1, pcDNA3.1+, Lipofectamine 2000
T1 sequence (P47871 26-477): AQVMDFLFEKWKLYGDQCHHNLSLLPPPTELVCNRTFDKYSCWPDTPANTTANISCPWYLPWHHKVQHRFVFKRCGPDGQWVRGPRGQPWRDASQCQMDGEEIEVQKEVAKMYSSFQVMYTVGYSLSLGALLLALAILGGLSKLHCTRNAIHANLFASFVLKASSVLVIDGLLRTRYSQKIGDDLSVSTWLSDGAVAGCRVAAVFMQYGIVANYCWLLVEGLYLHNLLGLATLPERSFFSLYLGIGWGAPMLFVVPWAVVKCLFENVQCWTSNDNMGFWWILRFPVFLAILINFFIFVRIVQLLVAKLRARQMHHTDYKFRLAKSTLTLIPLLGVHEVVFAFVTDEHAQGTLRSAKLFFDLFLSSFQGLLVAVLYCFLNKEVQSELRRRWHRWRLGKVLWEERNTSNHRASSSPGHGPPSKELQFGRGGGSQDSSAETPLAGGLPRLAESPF
Source text: (§1) In the presence of the non-specific cAMP/cGMP phosphodiesterase inhibitor, 3-isobutyl-1-methylxanthine (IBMX), accumulating cAMP can be measured in vitro using common detection methods. Thus, it is possible to estimate an in vitro potency (pEC50) for peptides activating each of these receptors using fit dose-response curves for cAMP accumulation.
A cDNA fragment encoding the full-length open reading frame of the cynomolgus monkey GLP-1R (Genebank accession #XM_028847603 was cloned into pcDNA3.1+ for expression in CHO-K1 cells. A cDNA fragment encoding the full-length open reading frame of the human GCGR (Genebank accession #NM_000160 was cloned into pcDNA3.1+ for expression in CHO-K1 cells. A cDNA fragment encoding the full-length open reading frame of the rat GCGR (Genebank accession #NM_12091 was cloned into pcDNA3.1+ for expression in CHO-K1 cells. A cDNA fragment encoding the full-length open reading frame of the cynomolgus monkey GCGR (Genebank accession #XM_005585255 was cloned into pcDNA3.1+ for expression in CHO-K1 cells.
(§2) On day 1, CHO-K1 cells were plated at 1.5 million cells per T75 flask in 90% F12-K media supplemented with 10% FBS. On day 3 cells were transfected with 40 mcg of each expression plasmid using Lipofectamine 2000 transfection reagent. On day 5, cells were dispensed at 1000 cells per well in white 384-well OptiPlates in 5 mcL of assay buffer consisting of 1×HBSS, 5 mM HEPES, 0.5 mM IBMX, and 0.1% casein.
(§3) Peptides were serially diluted 4-fold in assay buffer to final concentrations ranging from 1×10^−9 M to 9.5×10^−16 M. Two assay controls consisting of 50 mcM forskolin (cAMP system maximum) or assay buffer only (cAMP system minimum) were also prepared. Five microliters of each peptide-concentration, or assay control, was added to triplicate wells and incubated for thirty minutes at room temperature. During this incubation step a 4× europium labelled cAMP tracer solution and a 4× Ulight®-anti-cAMP solution (consisting of an anti-cAMP monoclonal antibody labelled with Ulight™ dye) was prepared according to the manufacturer's protocol (PerkinElmer LANCE Ultra cAMP kit). Following this incubation, 5 mcL europium labelled cAMP and 5 mcL Ulight anti-cAMP antibody was added to each well. The plate was covered to prevent evaporation and incubated for 60 minutes at room temperature in the dark. Plates were read on an Envision fluorescent plate reader (PerkinElmer).
(§4) Test values were first normalized to the system maximum and system minimum averaged values in Excel using the formula: (test value−system min average)/(system max average -system min average)*100. Normalized test values represent a baseline corrected percentage of the system maximum cAMP response induced by forskolin. Data from up to 3 replicate tests were analyzed for each peptide. Potency values were estimated using GraphPad Prism software (v7.04) by fitting data to a 4-parameter logistic curve model: Y=Bottom+(Top−Bottom)/(1+10^((LogEC50−X))). The Hill slope was constrained to 1.0. EC50 values were converted to pEC50 values using the formula: pEC50=−Log (EC50).

[2] = target: T2, human GLP-1 receptor (GLP-1R) (Homo sapiens, UniProt P43220); assay: cAMP accumulation assay, CHO-K1 cells stably expressing human GLP-1R; type: cell-based; conditions: cAMP accumulation, mean pEC50, Table 10
T2 construct: expressed in transfected cells
T2 sequence (P43220 24-463): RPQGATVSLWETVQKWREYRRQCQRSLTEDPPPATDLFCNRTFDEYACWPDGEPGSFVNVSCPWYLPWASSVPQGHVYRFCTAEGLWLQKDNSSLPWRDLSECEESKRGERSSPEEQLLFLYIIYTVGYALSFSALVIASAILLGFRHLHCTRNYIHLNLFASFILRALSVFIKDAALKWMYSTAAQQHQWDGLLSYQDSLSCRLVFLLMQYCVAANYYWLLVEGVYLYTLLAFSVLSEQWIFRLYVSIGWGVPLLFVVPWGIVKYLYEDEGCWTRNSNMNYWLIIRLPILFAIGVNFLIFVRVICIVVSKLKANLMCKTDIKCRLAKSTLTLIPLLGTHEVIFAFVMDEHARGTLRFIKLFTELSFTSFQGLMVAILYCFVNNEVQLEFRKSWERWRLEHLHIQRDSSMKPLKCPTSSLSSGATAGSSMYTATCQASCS
Procedure: as §1
CHO-K1 cells stably expressing human GLP-1R (Genebank accession #NM_002062) were grown in 90% F12-K media supplemented with 10% FBS and 250 μg/ml G418.
as §2, §3, §4

CC(C)C[C@H](NC(=O)[C@H](Cc1ccc(O)cc1)NC(=O)[C@H](CCCCN)NC(=O)[C@H](CO)NC(=O)[C@H](Cc1ccc(O)cc1)NC(=O)[C@H](CC(=O)O)NC(=O)[C@H](CO)NC(=O)[C@@H](NC(=O)[C@H](Cc1ccccc1)NC(=O)[C@@H](NC(=O)CNC(=O)[C@H](Cc1c[nH]cn1)NC(=O)[C@H](CO)NC(=O)[C@@H](N)Cc1ccc(O)cc1)[C@@H](C)O)[C@@H](C)O)C(=O)N[C@@H](CCCCNC(=O)CC[C@H](NC(=O)CC[C@H](NC(=O)COCCOCCNC(=O)CCCCCCCCCCCCCCCCCCC(=O)O)C(=O)O)C(=O)O)C(=O)NC(C)(C)C(=O)N[C@@H](CCCCN)C(=O)N[C@@H](Cc1ccc(O)cc1)C(=O)N[C@@H](C)C(=O)N[C@@H](CCC(N)=O)C(=O)N[C@@H](CCC(=O)O)C(=O)N[C@@H](Cc1ccccc1)C(=O)N[C@H](C(=O)NC(C)(C)C(=O)N[C@@H](Cc1c[nH]c2ccccc12)C(=O)N[C@@H](CC(C)C)C(=O)N[C@@H](CCC(=O)O)C(=O)N[C@@H](CC(=O)O)C(=O)N[C@@H](CCC(=O)O)C(=O)N1CCC[C@H]1C(=O)N[C@@H](CO)C(=O)N[C@@H](CO)C(=O)NCC(=O)N[C@@H](C)C(=O)N1CCC[C@H]1C(=O)N1CCC[C@H]1C(=O)N1CCC[C@H]1C(=O)N[C@@H](CO)C(=O)O)C(C)C [Compound A1] (H-YSHGTFTSDYSKYLK([γGlu-γGlu-AEEA-C20 diacid])[Aib]KYAQEFV[Aib]WLEDEPSSGAPPPS-OH)
EC50 [1]: 3.16 pM

CC(C)C[C@H](NC(=O)[C@H](Cc1ccc(O)cc1)NC(=O)[C@H](CCCCN)NC(=O)[C@H](CO)NC(=O)[C@H](Cc1ccc(O)cc1)NC(=O)[C@H](CC(=O)O)NC(=O)[C@H](CO)NC(=O)[C@@H](NC(=O)[C@H](Cc1ccccc1)NC(=O)[C@@H](NC(=O)CNC(=O)[C@H](Cc1c[nH]cn1)NC(=O)[C@H](CO)NC(=O)[C@@H](N)Cc1ccc(O)cc1)[C@@H](C)O)[C@@H](C)O)C(=O)N[C@@H](CC(=O)O)C(=O)NC(C)(C)C(=O)N[C@@H](CCCCN)C(=O)N[C@@H](CCCCNC(=O)CC[C@H](NC(=O)CC[C@H](NC(=O)COCCOCCNC(=O)CCCCCCCCCCCCCCCCCCC(=O)O)C(=O)O)C(=O)O)C(=O)N[C@@H](C)C(=O)N[C@@H](CCC(N)=O)C(=O)N[C@@H](CCC(=O)O)C(=O)N[C@@H](Cc1ccccc1)C(=O)N[C@H](C(=O)NC(C)(C)C(=O)N[C@@H](Cc1c[nH]c2ccccc12)C(=O)N[C@@H](CC(C)C)C(=O)N[C@@H](CCC(=O)O)C(=O)N[C@@H](CC(=O)O)C(=O)N[C@@H](CCC(=O)O)C(=O)N1CCC[C@H]1C(=O)N[C@@H](CO)C(=O)N[C@@H](CO)C(=O)NCC(=O)N[C@@H](C)C(=O)N1CCC[C@H]1C(=O)N1CCC[C@H]1C(=O)N1CCC[C@H]1C(=O)N[C@@H](CO)C(=O)O)C(C)C [Compound A4] (H-YSHGTFTSDYSKYLD[Aib]KK([γGlu-γGlu-AEEA-C20 diacid])AQEFV[Aib]WLEDEPSSGAPPPS-OH; N-terminus assumed)
EC50 [1]: 2 pM

CC(C)C[C@H](NC(=O)[C@H](Cc1ccc(O)cc1)NC(=O)[C@H](CCCCN)NC(=O)[C@H](CO)NC(=O)[C@H](Cc1ccc(O)cc1)NC(=O)[C@H](CC(=O)O)NC(=O)[C@H](CO)NC(=O)[C@@H](NC(=O)[C@H](Cc1ccccc1)NC(=O)[C@@H](NC(=O)CNC(=O)[C@H](Cc1c[nH]cn1)NC(=O)[C@H](CO)NC(=O)[C@@H](N)Cc1ccc(O)cc1)[C@@H](C)O)[C@@H](C)O)C(=O)N[C@@H](CC(=O)O)C(=O)NC(C)(C)C(=O)N[C@@H](CCCCN)C(=O)N[C@@H](Cc1ccc(O)cc1)C(=O)N[C@@H](C)C(=O)N[C@@H](CCCCNC(=O)CC[C@H](NC(=O)CC[C@H](NC(=O)COCCOCCNC(=O)CCCCCCCCCCCCCCCCCCC(=O)O)C(=O)O)C(=O)O)C(=O)N[C@@H](CCC(=O)O)C(=O)N[C@@H](Cc1ccccc1)C(=O)N[C@H](C(=O)NC(C)(C)C(=O)N[C@@H](Cc1c[nH]c2ccccc12)C(=O)N[C@@H](CC(C)C)C(=O)N[C@@H](CCC(=O)O)C(=O)N[C@@H](CC(=O)O)C(=O)N[C@@H](CCC(=O)O)C(=O)N1CCC[C@H]1C(=O)N[C@@H](CO)C(=O)N[C@@H](CO)C(=O)NCC(=O)N[C@@H](C)C(=O)N1CCC[C@H]1C(=O)N1CCC[C@H]1C(=O)N1CCC[C@H]1C(=O)N[C@@H](CO)C(=O)O)C(C)C [Compound A5] (H-YSHGTFTSDYSKYLD[Aib]KYAK([γGlu-γGlu-AEEA-C20 diacid])EFV[Aib]WLEDEPSSGAPPPS-OH; N-terminus assumed)
EC50 [1]: 2.51 pM

CC(C)C[C@H](NC(=O)[C@H](Cc1ccc(O)cc1)NC(=O)[C@H](CCCCN)NC(=O)[C@H](CO)NC(=O)[C@H](Cc1ccc(O)cc1)NC(=O)[C@H](CC(=O)O)NC(=O)[C@H](CO)NC(=O)[C@@H](NC(=O)[C@H](Cc1ccccc1)NC(=O)[C@@H](NC(=O)CNC(=O)[C@H](Cc1c[nH]cn1)NC(=O)[C@H](CO)NC(=O)[C@@H](N)Cc1ccc(O)cc1)[C@@H](C)O)[C@@H](C)O)C(=O)N[C@@H](CC(=O)O)C(=O)N[C@@H](CCCCNC(=O)CC[C@H](NC(=O)CC[C@H](NC(=O)COCCOCCNC(=O)CCCCCCCCCCCCCCCCCCC(=O)O)C(=O)O)C(=O)O)C(=O)N[C@@H](CCCCN)C(=O)N[C@@H](Cc1ccc(O)cc1)C(=O)N[C@@H](C)C(=O)N[C@@H](CO)C(=O)N[C@@H](CCC(=O)O)C(=O)N[C@@H](Cc1ccccc1)C(=O)N[C@H](C(=O)NC(C)(C)C(=O)N[C@@H](Cc1c[nH]c2ccccc12)C(=O)N[C@@H](CC(C)C)C(=O)N[C@@H](CCC(=O)O)C(=O)N[C@@H](CO)C(=O)N[C@@H](CCC(=O)O)C(=O)N1CCC[C@H]1C(=O)N[C@@H](CO)C(=O)N[C@@H](CO)C(=O)NCC(=O)N[C@@H](C)C(=O)N1CCC[C@H]1C(=O)N1CCC[C@H]1C(=O)N1CCC[C@H]1C(=O)N[C@@H](CO)C(=O)O)C(C)C [Compound A24] (H-YSHGTFTSDYSKYLDK([γGlu-γGlu-AEEA-C20 diacid])KYASEFV[Aib]WLESEPSSGAPPPS-OH; N-terminus assumed)
EC50 [2]: > 1000 pM

CC(C)C[C@@H]1NC(=O)[C@H](Cc2c[nH]c3ccccc23)NC(=O)[C@@H](NC(=O)[C@@H](NC(=O)[C@H](Cc2ccccc2)NC(=O)[C@H](CCCCNC(=O)CC[C@H](NC(=O)CC[C@H](NC(=O)COCCOCCNC(=O)CCCCCCCCCCCCCCCCCCC(=O)O)C(=O)O)C(=O)O)NC(=O)[C@H](CCC(N)=O)NC(=O)[C@H](C)NC(=O)[C@H](Cc2ccc(O)cc2)NC(=O)[C@H](CCCCN)NC(=O)C(C)(C)NC(=O)[C@H](CC(=O)O)NC(=O)[C@H](CC(C)C)NC(=O)[C@H](Cc2ccc(O)cc2)NC(=O)[C@H](CCCCN)NC(=O)[C@H](CO)NC(=O)[C@H](Cc2ccc(O)cc2)NC(=O)[C@H](CC(=O)O)NC(=O)[C@H](CO)NC(=O)[C@@H](NC(=O)[C@H](Cc2ccccc2)NC(=O)[C@@H](NC(=O)CNC(=O)[C@H](Cc2c[nH]cn2)NC(=O)[C@H](CO)NC(=O)[C@@H](N)Cc2ccc(O)cc2)[C@@H](C)O)[C@@H](C)O)C(C)C)CCCCNC(=O)C[C@@H](C(=O)N[C@@H](CCC(=O)O)C(=O)N2CCC[C@H]2C(=O)N[C@@H](CO)C(=O)N[C@@H](CO)C(=O)NCC(=O)N[C@@H](C)C(=O)N2CCC[C@H]2C(=O)N2CCC[C@H]2C(=O)N2CCC[C@H]2C(=O)N[C@@H](CO)C(=O)O)NC(=O)[C@H](CCC(=O)O)NC1=O [Compound A30] (H-YSHGTFTSDYSKYLD[Aib]KYAQK([γGlu-γGlu-AEEA-C20 diacid])FVKWLEDEPSSGAPPPS-OH; lactam 24-28)
EC50 [2]: > 1000 pM
